# Measurements reported in patent publication US20230090255A1, “MAGL INHIBITOR, PREPARATION METHOD THEREFOR AND USE THEREOF” (LUNAN PHARMACEUTICAL GROUP CORPORATION, priority 2019, published 2023).
# Marks after values point to notes of the source that are not given here.
# What was measured:
# [1] = system: irritable bowel syndrome rats; test: Irritable bowel syndrome rats induced by early maternal separation; format: in vivo, SD rats; set-up: AWR scoring: scale not given here; conditions: for Colon 5-HT / Serum 5-HT / AWR scoring: IBS rats
# [2] = system: mice writhing caused by acetic acid; test: Mice writhing caused by acetic acid; conditions: for Writhing times: 1 h before 0.7% acetic acid ip, within 20 min; for Latent time: time to first writhing; for Inhibition ratio: writhing inhibition
# [3] = system: mice pain response induced by hot plate; test: Mice pain response induced by hot plate; format: in vivo, ICR mice; conditions: for Pain threshold: hot plate 55°C
# Outline: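 Female ICR mice (20±2 g) dosed intragastrically for 7 consecutive days. Latency to hind-paw licking on a 55±0.5° C hot plate measured at 30, 60, 90 and 120 min after the last dose, with a 60 s cap. Mice with baseline latency <5 s or >30 s, or jumping, excluded.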
# [4] = system: ulcerative colitis mice; test: Mice ulcerative colitis (DSS); format: in vivo, BALB/c mice; conditions: for Total times of hematochezia within the four periods / Colon length / IL-1 content: DSS mice; for Colon length: four periods; for IL-1 content: serum, ELISA
# [5] = system: mice with inflammatory pain; test: Pain threshold of mice with inflammatory pain (complete Freund's adjuvant); format: in vivo, SD mice; conditions: for Pain threshold: complete Freund's adjuvant paw model
smiles,measurement,setting,value
O=C(Nc1cccc(Cl)c1)C1CCN(C(=O)c2cc3cc(F)ccc3[nH]2)CC1 [MAGLZ-II-18 (a)],Colon 5-HT,[1]; high dose 30 mg/kg ig 20 d,13.90 ± 1.13 µg/mg
same,Serum 5-HT,[1]; high dose 30 mg/kg ig 20 d,29.44 ± 4.37 µg/mL
same,AWR scoring,"[1]; high dose 30 mg/kg ig 20 d, 20 mm Hg",1.96±0.46** *
same,AWR scoring,"[1]; high dose 30 mg/kg ig 20 d, 40 mm Hg",2.60±0.58
same,AWR scoring,"[1]; high dose 30 mg/kg ig 20 d, 60 mm Hg",3.00±0.54
same,Colon 5-HT,[1]; low dose 7.5 mg/kg ig 20 d,16.43 ± 2.15 µg/mg
same,Serum 5-HT,[1]; low dose 7.5 mg/kg ig 20 d,32.51 ± 5.01 µg/mL
same,AWR scoring,"[1]; low dose 7.5 mg/kg ig 20 d, 20 mm Hg",2.58±0.26
same,AWR scoring,"[1]; low dose 7.5 mg/kg ig 20 d, 40 mm Hg",3.06±0.38
same,AWR scoring,"[1]; low dose 7.5 mg/kg ig 20 d, 60 mm Hg",3.50±0.29
same,Colon 5-HT,[1]; middle dose 15 mg/kg ig 20 d,14.64 ± 2.17 µg/mg
same,Serum 5-HT,[1]; middle dose 15 mg/kg ig 20 d,30.20 ± 5.59 µg/mL
same,AWR scoring,"[1]; middle dose 15 mg/kg ig 20 d, 20 mm Hg",2.35±0.40
same,AWR scoring,"[1]; middle dose 15 mg/kg ig 20 d, 40 mm Hg",3.02±0.51
same,AWR scoring,"[1]; middle dose 15 mg/kg ig 20 d, 60 mm Hg",3.39±0.34
same,"5-HT level in colon and serum, in words",[1]; compared with the model group,significantly decrease
same,"AWR scoring, in words",[1]; compared with the model group,significantly decrease
same,"latent time, in words",[2]; compared with the model group,extend
same,"mice writhing times caused by acetic acid, in words",[2]; compared with the model group,significantly decrease
same,Writhing times,[2]; high dose 30 mg/kg ig,17.8±11.1
same,Latent time,[2]; high dose 30 mg/kg ig,422.4 ± 137.9 s
same,Inhibition ratio,[2]; high dose 30 mg/kg ig,54.7%
same,Writhing times,[2]; low dose 7.5 mg/kg ig,24.2±8.5
same,Latent time,[2]; low dose 7.5 mg/kg ig,355.5 ± 136.5 s
same,Inhibition ratio,[2]; low dose 7.5 mg/kg ig,38.4%
same,Writhing times,[2]; middle dose 15 mg/kg ig,20.8±12.5
same,Latent time,[2]; middle dose 15 mg/kg ig,380.7 ± 130.7 s
same,Inhibition ratio,[2]; middle dose 15 mg/kg ig,47.1%
same,"pain thresholds of the thermal-stimulus mice, in words",[3]; compared with the model group,significantly extend
same,Pain threshold,"[3]; high dose 30 mg/kg ig 7 d, 30 min after final administration",40.86 ± 7.17 s
same,Pain threshold,"[3]; high dose 30 mg/kg ig 7 d, 60 min",46.29 ± 5.27 s
same,Pain threshold,"[3]; high dose 30 mg/kg ig 7 d, 90 min",48.70 ± 5.73 s
same,Pain threshold,"[3]; high dose 30 mg/kg ig 7 d, 120 min",47.04 ± 5.54 s
same,Pain threshold,"[3]; low dose 7.5 mg/kg ig 7 d, 30 min after final administration",34.62 ± 6.65 s
same,Pain threshold,"[3]; low dose 7.5 mg/kg ig 7 d, 60 min",40.29 ± 6.73 s
same,Pain threshold,"[3]; low dose 7.5 mg/kg ig 7 d, 90 min",43.98 ± 6.55 s
same,Pain threshold,"[3]; low dose 7.5 mg/kg ig 7 d, 120 min",43.56 ± 6.01 s
same,Pain threshold,"[3]; middle dose 15 mg/kg ig 7 d, 30 min after final administration",37.51 ± 6.07 s
same,Pain threshold,"[3]; middle dose 15 mg/kg ig 7 d, 60 min",42.42 ± 5.90 s
same,Pain threshold,"[3]; middle dose 15 mg/kg ig 7 d, 90 min",45.86 ± 7.09 s
same,Pain threshold,"[3]; middle dose 15 mg/kg ig 7 d, 120 min",44.38 ± 5.44 s
same,Total times of hematochezia within the four periods,[4]; high dose 30 mg/kg ig,27.90±7.28
same,Colon length,[4]; high dose 30 mg/kg ig,7.72±0.92 cm
same,IL-1 content,[4]; high dose 30 mg/kg ig,36.22 ± 4.31 pg/mL
same,Total times of hematochezia within the four periods,[4]; low dose 7.5 mg/kg ig,33.60±5.83
same,Colon length,[4]; low dose 7.5 mg/kg ig,6.51±0.90 cm
same,IL-1 content,[4]; low dose 7.5 mg/kg ig,47.32 ± 9.06 pg/mL
same,Total times of hematochezia within the four periods,[4]; middle dose 15 mg/kg ig,29.90±8.95
same,Colon length,[4]; middle dose 15 mg/kg ig,7.06±1.20 cm
same,IL-1 content,[4]; middle dose 15 mg/kg ig,43.77 ± 10.69 pg/mL
same,"IL-1 content, in words",[4]; compared with the model group,decrease
same,"colon length, in words",[4]; compared with the model group,significantly increase
same,"total times of hematochezia, in words",[4]; compared with the model group,reduce
same,"pain threshold of the mice with inflammatory pain, in words",[5]; compared with the model group,significantly extend
same,Pain threshold,"[5]; high dose 30 mg/kg ig once per day, 0 d",12.85 ± 2.26 s
same,Pain threshold,"[5]; high dose 30 mg/kg ig once per day, 1 d",7.49±0.79^∗∗∗ s
same,Pain threshold,"[5]; high dose 30 mg/kg ig once per day, 3 d",9.35±1.2^∗∗∗ s
same,Pain threshold,"[5]; high dose 30 mg/kg ig once per day, 7 d",10.37±1.59^∗∗∗ s
same,Pain threshold,"[5]; low dose 7.5 mg/kg ig once per day, 0 d",12.73 ± 2.43 s
same,Pain threshold,"[5]; low dose 7.5 mg/kg ig once per day, 1 d",6.97±0.87^∗∗ s
same,Pain threshold,"[5]; low dose 7.5 mg/kg ig once per day, 3 d",8.44±1.03^∗∗∗ s
same,Pain threshold,"[5]; low dose 7.5 mg/kg ig once per day, 7 d",9.56±0.92^∗∗ s
same,Pain threshold,"[5]; middle dose 15 mg/kg ig once per day, 0 d",12.86 ± 2.25 s
same,Pain threshold,"[5]; middle dose 15 mg/kg ig once per day, 1 d",7.26±0.70^∗∗∗ s
same,Pain threshold,"[5]; middle dose 15 mg/kg ig once per day, 3 d",9.01±0.68^∗∗∗ s
same,Pain threshold,"[5]; middle dose 15 mg/kg ig once per day, 7 d",10.37±1.49^∗∗∗ s
